Earlier results on 6 compounds are cited in patent US20060111442A1, “Use of methyl pyruvate to increase cellular energy production downstream of glycolysis for the PARP-1 ablation of HIV without necrotic cell death caused by continuous, chronic PARP-1 activation through the concomitant depletion of ATP and NAD” (priority 2004, published 2006).

SMILES strings stand for the structures. Like-named read-outs stand apart in the source and are kept apart here.

One data set relates to Na(+)-K(+)-ATPase. The conditions noted are these: 10 microM.
Data set [1] deals with isolated rat pancreatic islets.
The next data set concerns the target T1, K(ATP) channels (Homo sapiens, UniProt Q09428+Q14654).
T1 construct: endogenous in cells; host or cells: pancreatic beta-cells
The conditions noted are these: standard whole-cell configuration.

Data set [2] concerns isolated beta-cell mitochondria. To be noted: with glutamate, vs pyruvate/glutamate.
Data set [3] relates to Jurkat T-lymphocyte mitochondria.
In data set [4] the test system is guinea-pig cerebral cortical synaptosomes.
A further data set has as its system mGPDH-deficient islets. The conditions noted are these: both NADH shuttles halted.
In data set [5] the test system is hepatic stellate cells (HSC). The conditions noted are these: 10 microm 15dPGJ(2); 0.1 approximately 10 microm BRL49653; WY14643 >100 microm, not <10 microm.
The subject of data set [6] is PDK4. The conditions noted are these: control and high-fat-fed rats.
In data set [7] the test system is PDK4. The conditions noted are these: feeding.
The conditions of data set [8]: 1 mmol.kg-1.d-1, 7 d; P<0.01.

T1 sequence (Q14654 whole entry): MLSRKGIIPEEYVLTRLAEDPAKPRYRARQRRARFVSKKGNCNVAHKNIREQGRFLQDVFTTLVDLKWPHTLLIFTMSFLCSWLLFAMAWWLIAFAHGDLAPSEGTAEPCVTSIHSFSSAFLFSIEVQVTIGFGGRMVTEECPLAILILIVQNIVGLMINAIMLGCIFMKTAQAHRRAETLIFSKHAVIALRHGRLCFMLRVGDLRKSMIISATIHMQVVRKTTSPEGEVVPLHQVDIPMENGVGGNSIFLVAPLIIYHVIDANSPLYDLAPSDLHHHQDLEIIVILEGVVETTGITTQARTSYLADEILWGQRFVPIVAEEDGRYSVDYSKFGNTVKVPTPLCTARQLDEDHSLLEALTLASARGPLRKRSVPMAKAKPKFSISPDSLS
T1 sequence (Q09428 whole entry): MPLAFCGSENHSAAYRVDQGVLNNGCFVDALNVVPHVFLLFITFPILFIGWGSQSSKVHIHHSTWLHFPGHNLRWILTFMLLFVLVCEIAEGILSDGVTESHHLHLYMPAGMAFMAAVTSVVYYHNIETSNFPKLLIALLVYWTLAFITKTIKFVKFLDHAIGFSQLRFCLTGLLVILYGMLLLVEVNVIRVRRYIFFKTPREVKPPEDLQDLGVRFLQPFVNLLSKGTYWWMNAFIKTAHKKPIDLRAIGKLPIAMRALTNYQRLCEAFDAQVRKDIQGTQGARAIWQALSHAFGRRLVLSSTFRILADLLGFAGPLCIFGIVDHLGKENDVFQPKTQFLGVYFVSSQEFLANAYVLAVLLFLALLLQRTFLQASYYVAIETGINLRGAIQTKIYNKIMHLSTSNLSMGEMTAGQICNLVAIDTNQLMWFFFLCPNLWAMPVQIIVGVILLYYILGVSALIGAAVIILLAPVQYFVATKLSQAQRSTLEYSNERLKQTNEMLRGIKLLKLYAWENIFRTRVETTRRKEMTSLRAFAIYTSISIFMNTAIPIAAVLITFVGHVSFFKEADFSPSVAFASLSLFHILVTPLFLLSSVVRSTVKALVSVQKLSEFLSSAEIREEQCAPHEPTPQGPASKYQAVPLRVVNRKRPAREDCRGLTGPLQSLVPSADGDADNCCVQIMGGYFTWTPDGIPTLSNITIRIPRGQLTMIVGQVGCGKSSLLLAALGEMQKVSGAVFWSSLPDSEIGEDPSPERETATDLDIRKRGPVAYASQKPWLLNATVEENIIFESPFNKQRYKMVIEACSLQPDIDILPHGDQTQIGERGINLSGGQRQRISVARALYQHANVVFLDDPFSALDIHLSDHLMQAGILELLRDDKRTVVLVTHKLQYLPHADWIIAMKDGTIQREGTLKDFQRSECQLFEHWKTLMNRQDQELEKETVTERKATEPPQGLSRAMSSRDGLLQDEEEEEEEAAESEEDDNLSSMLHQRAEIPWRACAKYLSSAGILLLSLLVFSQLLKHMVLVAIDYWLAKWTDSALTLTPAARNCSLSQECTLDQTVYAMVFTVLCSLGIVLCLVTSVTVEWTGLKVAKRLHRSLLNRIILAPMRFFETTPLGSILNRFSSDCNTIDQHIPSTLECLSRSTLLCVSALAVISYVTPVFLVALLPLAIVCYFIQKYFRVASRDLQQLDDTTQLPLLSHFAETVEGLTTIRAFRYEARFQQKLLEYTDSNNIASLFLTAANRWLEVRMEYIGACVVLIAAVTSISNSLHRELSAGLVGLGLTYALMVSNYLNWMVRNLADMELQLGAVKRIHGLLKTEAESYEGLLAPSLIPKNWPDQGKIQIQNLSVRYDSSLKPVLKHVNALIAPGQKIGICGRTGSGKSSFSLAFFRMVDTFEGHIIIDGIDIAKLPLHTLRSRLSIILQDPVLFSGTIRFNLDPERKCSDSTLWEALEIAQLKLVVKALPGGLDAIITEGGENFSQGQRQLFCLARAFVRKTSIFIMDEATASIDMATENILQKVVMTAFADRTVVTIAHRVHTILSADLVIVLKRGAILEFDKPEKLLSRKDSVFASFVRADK

As to `C[C@@H]1O[C@@H](O[C@H]2C[C@@H](O)[C@]3(CO)[C@H]4[C@H](O)C[C@]5(C)[C@@H](C6=CC(=O)OC6)CC[C@]5(O)[C@@H]4CC[C@]3(O)C2)[C@H](O)[C@H](O)[C@H]1O` [ouabain], in the data set on Na(+)-K(+)-ATPase, the “glycolysis and lactate production” value is “decreased glycolysis and lactate production”.
As to `COC(=O)C(C)=O` [methyl pyruvate], in the data set on pancreatic beta-cells, the “NAD(P)H autofluorescence, ATP production, ATP/ADP ratio” value was “slightly decreased NAD(P)H autofluorescence and did not influence ATP production or the ATP/ADP ratio”; the “cytosolic free Ca(2+) concentration” value is “increased the cytosolic free Ca(2+) concentration after an initial decrease”; the “increase in insulin secretion relative to that induced by glucose” value is 6 fold. In the data set with pancreatic beta-cells (0.5 mM glucose), the electrical activity result was “elicited electrical activity”. In the data set on pancreatic beta-cells (5-20 mM), the beta-cell membrane depolarization result is “depolarized the beta-cell in a concentration-dependent manner”. Moreover, the “concentration of maximal effect on insulin secretion” value with pancreatic beta-cells (absence of glucose) is on record as 5 mM. Further, the insulin secretion result in the data set on pancreatic beta-cells (absence of glucose, pyruvate 5-20 mM) is recorded as “stimulated insulin secretion”. In addition, the “insulin secretion and KATP block” value in the data set on pancreatic beta-cells (islets) was “block of KATP”. In the data set with pancreatic beta-cells (pyruvate 5 mM, MP 5 mM, glucose 20 mM), the “ATP/ADP ratio in whole islets” value was “no effect”. Further, in [1], the mitochondrial alkalinization entry is reported as “more marked mitochondrial alkalinization than pyruvate” and the “mitochondrial metabolism compared with pyruvate” value is given as “more efficient than pyruvate”. For the same compound, in [1] (D-glucose 16.7 mM and/or ester 20.0 mM), the insulin release entry is reported as “negative insulinotropic action”. The insulin release entry in [1] (D-glucose 2.8 to 8.3 mM, ester not exceeding 1 0.0 mM) is listed as “positive insulinotropic action”. For the same compound, on K(ATP) channels, the “K(ATP) current” value is listed as “inhibited the K(ATP) current”. In [2], the ATP production result is listed as “higher”. Besides, the “cation current across the inner membrane” value in data set [3] is on record as “directly inhibited”. The “NADH and NADPH response” value in the data set on pancreatic islets was “stimulated a robust NADH and NADPH response”.
Consider `CCCCCCCC(=O)O` [octanoate], for which the “adverse energetic effects of malate-aspartate shuttle inhibition” value in the data set on porcine carotid arteries is “normalized”.
For the compound `NOCC(=O)O` [amino-oxyacetic acid], the “negative shift in the cytosolic NAD+/NADH redox potential” value in data set [4] is 26 mV. In addition, in the data set with mGPDH-deficient islets, the glucose-induced insulin secretion entry is “almost completely abrogated”.
Turning to `Cc1cccc(Nc2cc(Cl)nc(SCC(=O)O)n2)c1C` [WY14643], the “HSC DNA and collagen synthesis” value in [5] was “inhibited”. Further, the “hepatic PDK4 protein” value with PDK4 [6] is on record as “significantly increased PDK4 protein”. Further, in the data set on PDK4 [7], the “pyruvate dehydrogenase kinase activity, PDK4 protein, PDK4 mRNA in gastrocnemius muscle” value is “induced large increases”.
For the compound `CCO[C@@H](Cc1ccc(OCCc2ccc(OS(C)(=O)=O)cc2)cc1)C(=O)O` [tesaglitazar], the “insulin sensitivity (glucose infusion rate during hyperinsulinemic-euglycemic clamp)” value in data set [8] is given as “improved the insulin sensitivity”.
